What was measured:
Format in all cases: cell-based
NCI-H226 = assay: cell viability of NCI-H226 cells, 1 and 10 uM; conditions: Homo sapiens
H358 = assay: cell viability of H358 cells, 1 and 10 uM; conditions: Homo sapiens, NCI-H358
Sk-Hep1 = assay: MTT cell viability, Sk-Hep1; conditions: Homo sapiens, 48 h
Method: The Sk-Hep1, PLC/PRF/5 (PLC) and Hep3B cell lines were obtained from American Type Culture Collection (ATCC; Manassas, Va., USA). The Huh-7 HCC cell line was obtained from the Health Science Research Resources Bank (HSRRB; Osaka, Japan; JCRB0403). Cells were maintained in DMEM supplemented with 10% FBS in a 37° C. humidified incubator in an atmosphere of 5% CO^2 in air. Other cell lines, including non-small cell lung cancer cells e.g. H358, H460 and A549 and human squamous cell carcinoma cells e.g. NCI-1703, H2170, H520, SW900 and NCI—H226 all obtained from American Type Culture Collection (Manassas, Va.) were also provided for the assays describes below.
The present invention compared the antitumor activities of an erlotinib derivative of the present invention, TD-52, and erlotinib on HCC cells. The present invention used MTT assay to evaluate cell viability after exposure to TD-52 or erlotinib for 48 h. […] To further evaluate the cell apoptosis induced by the treatments, all four cell lines were treated with TD-52 and erlotinib at the indicated concentration for 24 h and the percentages of sub-G1 cells were determined by flow cytometry (FIG. 1B).

[1] = tested on: HCC cells (HA22T, Hep3B, PLC5, Sk-Hep1); assay: annexin-V/PI double-staining assay of apoptotic and necrotic cell death; conditions: 2 μM or higher doses, 48 h, four HCC cell lines
Method: The numbers of apoptotic cells after treatment with DMSO, sorafenib or the erlotinib derivatives of the present invention were assessed by flow cytometry (sub-G1). Annexin-V/propidium iodidie (PI) double-staining assay was used to determine numbers of both apoptotic and necrotic cells. For above tow assays, HCC cells were harvested after the erlotinib derivatives of the present invention treatment and incubated with PI alone for sub-G1 assay and in combination with annexin-V—FITC. Analysis of cell composition was performed by flow cytometry. The erlotinib derivatives of the present invention-induced apoptotic cell death was assessed by western blot analysis of activated caspases and cleaved PARP, and cell death enzyme-linked immunosorbent assay (ELISA) for cytoplasmic histone-associated DNA fragments (Roche, Indianapolis, Ind., USA). The effect of co-treatment with the erlotinib derivatives of the present invention and z-VAD-fmk, the caspase inhibitor, were assessed by western blot analysis and flow cytometry.
To better characterize the antitumor properties of TD-52, annexin-V/propidium iodide (PI) double-staining assay, western blot analysis, cell cycle analysis and DNA fragmentation assay were performed (FIGS. 1C-1E). At dose increase, the proportion of apoptosis and necrosis of cancer cell ware analyzed by annexin-V—FITC/PI double-staining assay. […]

CIP2A, p-Akt = assay: western blot of CIP2A and p-Akt in HCC cells; conditions: dose- and time-dependent
Method: Bar, mean; error bars, S.D. (n=3). […] Bar, mean; error bars, S.D. (n=3). […] Bar, mean; error bars, S.D. (n=3). […] Bar, mean; error bars, S.D. (n=3). […] Bar, mean; error bars, S.D. (n=3)
Cells were treated with […] for a time period. Cell lysates were analyzed by western blot analysis.
The present invention next investigated the molecular mechanism associated with TD-52, with particular focus on the cancerous inhibitor of protein phosphatase 2A (CIP2A)-protein phosphatase 2A (PP2A)-p-Akt signaling pathway. […] Furthermore, PP2A activity was enhanced after HCC cells treated with […]-52 for 24 hr (FIG. 2C), while the expression level of PP2A-related subunits, PP2A-A, PP2A-B5 and PP2A-C subunits, were not affected.

For `C#Cc1cccc(Nc2nc3ccccc3nc2Nc2cccc(C#C)c2)c1` [TD52, N^2,N^3-bis(3-ethynylphenyl)quinoxaline-2,3-diamine], the viability at 1 µM (NCI-H226; 1 uM) was 79.5 ± 6.9%, the viability at 10 µM (NCI-H226; 10 uM) was 5.3 ± 0.1% and the viability at 1 µM (H358; 1 uM) was 99.8 ± 3.8%. The viability at 10 µM (H358; 10 uM) was 11.2 ± 0.7%, the IC50 (Sk-Hep1) was 1.2 µM and the “extents of cancer cell death, included apoptotic and necrotic death” value [1] was no less than 50%. The “protein expression of CIP2A and p-Akt” value (CIP2A, p-Akt) was “downregulated”.
